From patent US12257237B2 (priority 2017, dated 2025)

Tested on: DD013 dedifferentiated liposarcoma
Experiment: Antitumour activity in DD013 dedifferentiated liposarcoma xenograft model
Format: in vivo, Athymic nude mice
Details: for optimal T/C: day 50
Method: Experiments were performed with female Athymic nude mice, 9-10 weeks old obtained from Harlan Laboratories (Udine, Italy). They were maintained under Specific Pathogen Free conditions with constant temperature and humidity, according to the institutional guidelines.
Tumour growth mice was monitored two/three times a week (depending on tumour growth rate, to avoid unnecessary stress to the animals) by Vernier caliper. Mice were sacrificed when tumour reached a mean weight of 2±0.5 gr. The antitumour activity will be expressed as T/C %, where T and C were the mean tumour weight of treated and control groups, respectively. Mice were monitored daily and weighted at least two times a week. Tolerability was evaluated on the basis of body weight loss (BWL) and clinical observation.
Statistical analysis was performed with GraphPad Prism version 6.01 software (GraphPad software, Inc., La Jolla, CA, USA). ANOVA test was performed to evaluate if there were statistically significant differences between treated and control groups.
Briefly, xenografts were obtained by transplanting 3-4 mm tumour fragments s.c. in the flanks of mice. The growing tumour masses were measured with the aid of a Vernier caliper, and the tumour weights (TW, 1 mm^3=1 mg) were calculated by the formula: length×(width) 2/2. When tumour load achieved about 200-400 mg, mice were randomized into the experimental groups.

Structure (SMILES): Cn1c(CCCCCCC(=O)NO)nc2cc(N(CCCl)CCCl)ccc21 [EDO-S101, 7-(5-(bis(2-chloroethyl)amino)-1-methyl-1H-benzo[d]imidazol-2-yl)-N-hydroxyheptanamide]
- optimal T/C (40 mg/kg i.v. q7dx3): 27.2%
- effect on tumour growth (40 mg/kg q7dx3, first cycle): reduced tumour growth, but without a complete arrest
- effect of second cycle on tumour growth (40 mg/kg, second cycle from day 50): promoted tumour growth arrest
- optimal T/C (60 mg/kg i.v. q7dx3): 14%
- effect on tumour growth (60 mg/kg, first cycle): induced tumour growth arrest
- effect of second cycle on tumour growth (60 mg/kg, second cycle from day 72): sustained tumour growth arrest
- optimal T/C (80 mg/kg i.v. single dose): 18%
- effect on tumour growth (80 mg/kg, first cycle): induced tumour growth arrest
- effect of second cycle on tumour growth (80 mg/kg, second cycle from day 58): Tumour growth arrest was also observed
- DD0113 tumour weight, Mean (EDO40: EDO-S101 40 mg/kg q7dx3, day 23 from inoculum): 198.6 mg
- DD0113 tumour weight, Mean (EDO40: EDO-S101 40 mg/kg q7dx3, day 26 from inoculum): 283.6 mg
- DD0113 tumour weight, Mean (EDO40: EDO-S101 40 mg/kg q7dx3, day 29 from inoculum): 319.2 mg
- DD0113 tumour weight, Mean (EDO40: EDO-S101 40 mg/kg q7dx3, day 33 from inoculum): 394.4 mg
- DD0113 tumour weight, Mean (EDO40: EDO-S101 40 mg/kg q7dx3, day 36 from inoculum): 380.3 mg
- DD0113 tumour weight, Mean (EDO40: EDO-S101 40 mg/kg q7dx3, day 40 from inoculum): 433.4 mg
- DD0113 tumour weight, Mean (EDO40: EDO-S101 40 mg/kg q7dx3, day 43 from inoculum): 451.3 mg
- DD0113 tumour weight, Mean (EDO40: EDO-S101 40 mg/kg q7dx3, day 47 from inoculum): 507.4 mg
- DD0113 tumour weight, Mean (EDO40: EDO-S101 40 mg/kg q7dx3, day 50 from inoculum): 570.5 mg
- DD0113 tumour weight, Mean (EDO40: EDO-S101 40 mg/kg q7dx3, day 54 from inoculum): 599.5 mg
- DD0113 tumour weight, Mean (EDO40: EDO-S101 40 mg/kg q7dx3, day 58 from inoculum): 584.1 mg
- DD0113 tumour weight, Mean (EDO40: EDO-S101 40 mg/kg q7dx3, day 62 from inoculum): 677.9 mg
- DD0113 tumour weight, Mean (EDO40: EDO-S101 40 mg/kg q7dx3, day 65 from inoculum): 677.8 mg
- DD0113 tumour weight, Mean (EDO40: EDO-S101 40 mg/kg q7dx3, day 69 from inoculum): 703.2 mg
- DD0113 tumour weight, Mean (EDO40: EDO-S101 40 mg/kg q7dx3, day 72 from inoculum): 669.8 mg
- DD0113 tumour weight, Mean (EDO40: EDO-S101 40 mg/kg q7dx3, day 75 from inoculum): 666.1 mg
- DD0113 tumour weight, Mean (EDO40: EDO-S101 40 mg/kg q7dx3, day 79 from inoculum): 756.8 mg
- DD0113 tumour weight, Mean (EDO40: EDO-S101 40 mg/kg q7dx3, day 83 from inoculum): 683.9 mg
- DD0113 tumour weight, Mean (EDO40: EDO-S101 40 mg/kg q7dx3, day 87 from inoculum): 935.9 mg
- DD0113 tumour weight, Mean (EDO40: EDO-S101 40 mg/kg q7dx3, day 90 from inoculum): 1022.8 mg
- DD0113 tumour weight, Mean (EDO40: EDO-S101 40 mg/kg q7dx3, day 94 from inoculum): 1226.5 mg
- DD0113 tumour weight, Mean (EDO40: EDO-S101 40 mg/kg q7dx3, day 98 from inoculum): 1338.0 mg
- DD0113 tumour weight, Mean (EDO40: EDO-S101 40 mg/kg q7dx3, day 100 from inoculum): 1553.1 mg
- DD0113 tumour weight, Mean (EDO60: EDO-S101 60 mg/kg q7dx3, day 23 from inoculum): 199.2 mg
- DD0113 tumour weight, Mean (EDO60: EDO-S101 60 mg/kg q7dx3, day 26 from inoculum): 272.5 mg
- DD0113 tumour weight, Mean (EDO60: EDO-S101 60 mg/kg q7dx3, day 29 from inoculum): 310.4 mg
- DD0113 tumour weight, Mean (EDO60: EDO-S101 60 mg/kg q7dx3, day 33 from inoculum): 373.1 mg
- DD0113 tumour weight, Mean (EDO60: EDO-S101 60 mg/kg q7dx3, day 36 from inoculum): 334.2 mg
- DD0113 tumour weight, Mean (EDO60: EDO-S101 60 mg/kg q7dx3, day 40 from inoculum): 371.2 mg
- DD0113 tumour weight, Mean (EDO60: EDO-S101 60 mg/kg q7dx3, day 43 from inoculum): 339.5 mg
- DD0113 tumour weight, Mean (EDO60: EDO-S101 60 mg/kg q7dx3, day 47 from inoculum): 330.2 mg
- DD0113 tumour weight, Mean (EDO60: EDO-S101 60 mg/kg q7dx3, day 50 from inoculum): 310.9 mg
- DD0113 tumour weight, Mean (EDO60: EDO-S101 60 mg/kg q7dx3, day 54 from inoculum): 321.1 mg
- DD0113 tumour weight, Mean (EDO60: EDO-S101 60 mg/kg q7dx3, day 58 from inoculum): 303.3 mg
- DD0113 tumour weight, Mean (EDO60: EDO-S101 60 mg/kg q7dx3, day 62 from inoculum): 298.3 mg
- DD0113 tumour weight, Mean (EDO60: EDO-S101 60 mg/kg q7dx3, day 65 from inoculum): 291.6 mg
- DD0113 tumour weight, Mean (EDO60: EDO-S101 60 mg/kg q7dx3, day 69 from inoculum): 334.6 mg
- DD0113 tumour weight, Mean (EDO60: EDO-S101 60 mg/kg q7dx3, day 72 from inoculum): 423.7 mg
- DD0113 tumour weight, Mean (EDO60: EDO-S101 60 mg/kg q7dx3, day 75 from inoculum): 432.9 mg
- DD0113 tumour weight, Mean (EDO60: EDO-S101 60 mg/kg q7dx3, day 79 from inoculum): 475.7 mg
- DD0113 tumour weight, Mean (EDO60: EDO-S101 60 mg/kg q7dx3, day 83 from inoculum): 376.9 mg
